Measured values published in US6656921B1, “Use of zinc hyaluronate against peptic ulcer” (Richter Gedeon Vegyeszeti Gyar RT., priority 1997, dated 2003).

Tests used:
[1] = system: gastrointestinal motility; assay: Gastrointestinal motility in the charcoal propulsion test; assay type: in vivo, rat; settings: 100 mg/kg p.o.
Experimental: Experiments were performed on female, RG-Wistar rats weighing 120-140 g, which were fasted for 24 hours but received water ad libitum.
The experimental procedure was carried out according to the technique similar to that described of P. A. Janssen and A. J. Jageneau [J. Pharm. Pharmacel. 9, 381 (1957)].
Test compounds were given orally at a dose of 100 mg/kg. Control animals received physiological saline solution instead of test compounds. 30 minutes later, the 5% (w/v) charcoal suspension was administered orally at a volume of 0.5 ml/animal. 60 minutes after the charcoal treatment the animals were sacrificed by cervical dislocation. The intestine from pylorus to cecum was removed, its lengths measured along with the distance traversed by the charcoal meal.
Motility was expressed as the ratio of length of charcoal suspension to the length of the whole intestine.

[2] = system: indomethacin induced gastric lesion; assay: Inhibition of indomethacin induced gastric lesion; assay type: in vivo, rat; settings: for Inhibition: 30 min before indomethacin; for Lesion number/stomach ± S.E.M.: 30 min before indomethacin 40 mg/kg s.c.
Experimental: 2. Inhibition of Indomethacin Induced Gastric Lesion Female RG Wistar rats weighing between 120-150 g were used. Before the experiments animals were fasted for 24 hours but received water ad libitum. Test compounds were given orally, 30 minutes later the animals were treated subcutaneously with indomethacin at a dose of 40 mg/kg. Four hours after the irritating indomethacin administration the animals were killed by cervical dislocation. The stomachs were removed, opened along the greater curvature and the hemorrhagic lesions were counted on the glandular stomach.
ED50 value represents the dose which protects the stomach by 50 % from the damaging effect of indomethacin.

- Effect on the intestinal motility (in words) [1]: absence of change in activity
- Ratio of charcoal suspension to the whole intestinal part [1]: 0.83 ± 0.03
- Propulsion of charcoal suspension mm ± S.E.M. ([1]; 30 min before charcoal, 60 min after charcoal): 655 ± 3.9 mm
Substance: zinc hyaluronate [Zinc hyaluronate (M)]
- Inhibition ([2]; 1.0 mg/kg p.o.): 15.7%
- Lesion number/stomach ± S.E.M. ([2]; 1.0 mg/kg p.o.): 15.6 ± 6.2
- Inhibition ([2]; 10.0 mg/kg p.o.): 68.1%
- Lesion number/stomach ± S.E.M. ([2]; 10.0 mg/kg p.o.): 5.9 ± 1.9
- Inhibition ([2]; 100 mg/kg p.o.): 89.2%
- Lesion number/stomach ± S.E.M. ([2]; 100 mg/kg p.o.): 2.0 ± 0.9
- ED50 (dose protecting the stomach by 50% from indomethacin) ([2]; p.o.): 6.2 mg/kg
